The target in assay [1] is Acyl-homoserine lactone acylase PvdQ (Pseudomonas aeruginosa (strain LESB58), UniProt Q9I194). Kind of assay: PvdQ acylase enzyme activity blockers – biochemical, fluorescence, plate reader and imaging, cherry-picks, dose response (AID 493231).
Assay [2] can be described thus: A cytotoxicity screen of small molecule inhibitors of the PhoP region in Salmonella typhi identified in the primary screen. [Related pubchem assays: 1850, 1864, 1985 ]. It is filed as functional.
Assay [3] is described as follows: M. tuberculosis H37Rv growth inhibitors, H37Rv strain (AID 1626). It is filed as functional.
The nature of assay [4]: luciferase reporter signal reduction – luminescence, H4-C neuroglioblastoma cells, dose response (AID 2458).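 Note: H4 neuroglioblastoma cells stably carrying a luciferase reporter gene fusion.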 In kind it is functional, cell-based. (A reporter such as luciferase makes a cellular process visible.)
The nature of assay [5]: cells. In kind it is functional, cell-based.
Assay [6] can be described thus: Luminescence Cell-Based Dose Response HTS to Identify Inhibitors of 5'UTR Stem-Loop Driven Prion Protein mRNA Translation in H4 Neuroglioblastoma Cells. [Related pubchem assays: 1827 (Project Summary), 1813 (Primary HTS)]. In kind it is functional.
Assay [7] is described as follows: luciferase reporter signal suppression in cells – H4 neuroglioma cells, luminescence, dose response (AID 1990). In kind it is functional, cell-based.
Assay [8] can be described thus: alpha-synuclein stem-loop translation blockers – luminescence, H4 neuroglioblastoma cells, dose confirmation, confirmation (AID 2454).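 Note: H4 neuroglioblastoma cells carrying an alpha-synuclein 5'UTR luciferase reporter; potency for inhibition of the luciferase signal.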 In kind it is functional, cell-based.
Assay [9] addresses T1, Heat shock factor protein 1 (Mus musculus, UniProt P38532).
T1 sequence (P38532 whole entry): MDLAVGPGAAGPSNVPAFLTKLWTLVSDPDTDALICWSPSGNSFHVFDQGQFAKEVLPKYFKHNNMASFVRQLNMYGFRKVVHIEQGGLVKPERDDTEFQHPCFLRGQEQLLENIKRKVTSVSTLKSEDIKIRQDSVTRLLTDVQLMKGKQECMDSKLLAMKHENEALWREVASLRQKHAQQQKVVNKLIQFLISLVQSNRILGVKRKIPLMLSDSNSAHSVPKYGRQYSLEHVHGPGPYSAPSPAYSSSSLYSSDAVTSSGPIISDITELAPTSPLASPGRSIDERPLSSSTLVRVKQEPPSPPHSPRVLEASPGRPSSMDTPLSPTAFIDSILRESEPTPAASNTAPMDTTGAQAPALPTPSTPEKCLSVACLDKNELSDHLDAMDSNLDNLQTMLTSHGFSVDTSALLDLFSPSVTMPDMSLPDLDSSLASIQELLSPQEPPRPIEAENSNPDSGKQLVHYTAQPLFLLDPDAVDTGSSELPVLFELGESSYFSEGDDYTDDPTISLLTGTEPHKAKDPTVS
Description: decrease of HSF1-responsive luciferase luminescence – cell-based, NIH3T3, dose retest, confirmation (AID 2382).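 Note: NIH3T3 fibroblasts with HSF1-driven luciferase reporter stressed by proteasome inhibitor MG132; luminescence from HSF1-driven luciferase expression after 8 hours of MG132 stress.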 In kind it is functional.

Assay [10] is described as follows: HEK-293T viability loss after treatment – luminescence, T-cell screen hits, cytotoxicity control for TCR NF-kB inhibitor project, dose response (AID 489026).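 Note: cells exposed to compound about 14 hours before the viability readout.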 In kind it is functional, cell-based.
A short description of assay [11]: alpha-synuclein stem-loop luciferase translation blockers – H4 neuroglioma cells, luminescence, confirmation (AID 1988). In kind it is functional, cell-based.
Assay [12] concerns the target T2, Replicative DNA helicase DnaB (Mycobacterium tuberculosis, UniProt P9WMR3).
T2 sequence (P9WMR3 whole entry): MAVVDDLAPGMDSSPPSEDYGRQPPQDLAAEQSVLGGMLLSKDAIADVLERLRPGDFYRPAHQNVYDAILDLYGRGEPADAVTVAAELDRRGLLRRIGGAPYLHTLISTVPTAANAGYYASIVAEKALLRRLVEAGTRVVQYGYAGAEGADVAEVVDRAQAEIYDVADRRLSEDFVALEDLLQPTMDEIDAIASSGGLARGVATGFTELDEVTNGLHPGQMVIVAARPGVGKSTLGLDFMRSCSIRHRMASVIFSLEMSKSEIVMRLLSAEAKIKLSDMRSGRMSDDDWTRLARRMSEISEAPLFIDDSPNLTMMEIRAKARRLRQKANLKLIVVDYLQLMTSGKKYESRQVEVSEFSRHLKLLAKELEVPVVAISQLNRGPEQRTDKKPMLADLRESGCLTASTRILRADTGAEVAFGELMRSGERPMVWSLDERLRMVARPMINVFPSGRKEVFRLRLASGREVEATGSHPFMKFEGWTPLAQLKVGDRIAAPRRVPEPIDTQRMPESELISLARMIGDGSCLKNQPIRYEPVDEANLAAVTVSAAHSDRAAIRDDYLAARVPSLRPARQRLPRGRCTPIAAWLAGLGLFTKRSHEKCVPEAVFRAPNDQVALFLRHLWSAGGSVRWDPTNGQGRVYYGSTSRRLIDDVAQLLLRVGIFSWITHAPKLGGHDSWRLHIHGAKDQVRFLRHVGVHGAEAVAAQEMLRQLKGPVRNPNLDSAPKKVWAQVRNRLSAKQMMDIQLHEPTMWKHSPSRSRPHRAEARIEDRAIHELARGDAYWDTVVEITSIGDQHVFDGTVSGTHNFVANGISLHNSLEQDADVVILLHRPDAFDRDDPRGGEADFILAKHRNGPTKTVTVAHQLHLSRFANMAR
Kind of assay: DnaB intein splicing inhibitors, dose response, biochemical, cell-free fluorescence (AID 449749). It is filed as functional.

In a further assay the target is T3, Protein RecA (Mycobacterium tuberculosis, UniProt P9WHJ3).
T3 sequence (P9WHJ3 whole entry): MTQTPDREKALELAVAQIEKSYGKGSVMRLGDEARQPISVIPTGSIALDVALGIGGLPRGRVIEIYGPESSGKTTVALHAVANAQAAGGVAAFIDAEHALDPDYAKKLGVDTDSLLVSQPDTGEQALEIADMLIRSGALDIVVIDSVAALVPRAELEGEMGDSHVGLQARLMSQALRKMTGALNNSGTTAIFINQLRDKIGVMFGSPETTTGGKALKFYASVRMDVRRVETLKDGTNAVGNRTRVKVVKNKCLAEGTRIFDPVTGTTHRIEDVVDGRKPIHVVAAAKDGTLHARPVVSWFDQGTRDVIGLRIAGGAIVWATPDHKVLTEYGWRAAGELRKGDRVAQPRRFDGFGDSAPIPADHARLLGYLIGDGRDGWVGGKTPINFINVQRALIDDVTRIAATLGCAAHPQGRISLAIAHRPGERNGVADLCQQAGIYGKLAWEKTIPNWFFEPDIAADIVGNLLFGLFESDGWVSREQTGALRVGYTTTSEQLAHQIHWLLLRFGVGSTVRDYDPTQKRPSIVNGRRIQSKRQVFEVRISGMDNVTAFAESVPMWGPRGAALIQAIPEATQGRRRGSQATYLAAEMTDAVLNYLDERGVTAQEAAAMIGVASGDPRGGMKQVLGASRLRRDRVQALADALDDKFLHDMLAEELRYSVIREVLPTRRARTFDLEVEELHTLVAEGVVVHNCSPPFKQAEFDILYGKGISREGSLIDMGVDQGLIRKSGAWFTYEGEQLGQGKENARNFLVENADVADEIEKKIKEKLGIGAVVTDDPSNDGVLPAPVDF
Kind of assay: Fluorescence Cell-Free Homogeneous Dose Retest to Identify Inhibitors of RecA-Intein Splicing Activity. [Related pubchem assays (depositor defined):AID2097, AID2223, AID489010, AID492950]. It is filed as functional.

In assay [13] the target is Peroxisome proliferator-activated receptor gamma/Nuclear receptor corepressor 2 (Homo sapiens, UniProt P37231+Q9Y618). It is filed as functional.
In assay [14] the target is Peroxisome proliferator-activated receptor gamma/Nuclear receptor coactivator 2 (Homo sapiens, UniProt P37231). In kind it is functional.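 Note: agonist potency for raising coactivator recruitment to the receptor.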
In assay [15] the target is Photoreceptor-specific nuclear receptor (Homo sapiens, UniProt Q9Y5X4). In kind it is functional.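 Note: potency for compounds that break the NR2E3 corepressor complex and count as activators.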
Assay [16] has as its target Peroxisome proliferator-activated receptor gamma/Nuclear receptor coactivator 1 (Homo sapiens, UniProt P37231). In kind it is functional.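 Note: agonist potency as compounds enhance coactivator SRC-1 recruitment to PPARgamma.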
In assay [17] the target is Peroxisome proliferator-activated receptor gamma/Nuclear receptor coactivator 3 (Homo sapiens, UniProt P37231). In kind it is functional.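 Note: agonist potency for raising coactivator recruitment to the receptor.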
Sequence of Peroxisome proliferator-activated receptor gamma/Nuclear receptor coactivator 3 (P37231 whole entry): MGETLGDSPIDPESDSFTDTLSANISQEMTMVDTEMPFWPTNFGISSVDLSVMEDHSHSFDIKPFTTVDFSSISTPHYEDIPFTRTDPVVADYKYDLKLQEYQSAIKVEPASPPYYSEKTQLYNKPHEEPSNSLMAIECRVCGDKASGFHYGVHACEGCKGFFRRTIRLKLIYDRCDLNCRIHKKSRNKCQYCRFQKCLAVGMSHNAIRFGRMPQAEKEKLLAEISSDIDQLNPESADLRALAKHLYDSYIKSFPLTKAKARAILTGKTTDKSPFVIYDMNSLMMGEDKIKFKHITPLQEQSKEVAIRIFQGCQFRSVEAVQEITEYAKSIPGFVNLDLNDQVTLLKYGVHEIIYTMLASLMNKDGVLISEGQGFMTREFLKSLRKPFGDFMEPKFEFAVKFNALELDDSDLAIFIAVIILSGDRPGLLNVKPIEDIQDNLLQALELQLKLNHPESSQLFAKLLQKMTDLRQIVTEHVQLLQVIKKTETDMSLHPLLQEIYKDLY
Sequence of Peroxisome proliferator-activated receptor gamma/Nuclear receptor coactivator 3 (Q9Y6Q9 whole entry, further chain): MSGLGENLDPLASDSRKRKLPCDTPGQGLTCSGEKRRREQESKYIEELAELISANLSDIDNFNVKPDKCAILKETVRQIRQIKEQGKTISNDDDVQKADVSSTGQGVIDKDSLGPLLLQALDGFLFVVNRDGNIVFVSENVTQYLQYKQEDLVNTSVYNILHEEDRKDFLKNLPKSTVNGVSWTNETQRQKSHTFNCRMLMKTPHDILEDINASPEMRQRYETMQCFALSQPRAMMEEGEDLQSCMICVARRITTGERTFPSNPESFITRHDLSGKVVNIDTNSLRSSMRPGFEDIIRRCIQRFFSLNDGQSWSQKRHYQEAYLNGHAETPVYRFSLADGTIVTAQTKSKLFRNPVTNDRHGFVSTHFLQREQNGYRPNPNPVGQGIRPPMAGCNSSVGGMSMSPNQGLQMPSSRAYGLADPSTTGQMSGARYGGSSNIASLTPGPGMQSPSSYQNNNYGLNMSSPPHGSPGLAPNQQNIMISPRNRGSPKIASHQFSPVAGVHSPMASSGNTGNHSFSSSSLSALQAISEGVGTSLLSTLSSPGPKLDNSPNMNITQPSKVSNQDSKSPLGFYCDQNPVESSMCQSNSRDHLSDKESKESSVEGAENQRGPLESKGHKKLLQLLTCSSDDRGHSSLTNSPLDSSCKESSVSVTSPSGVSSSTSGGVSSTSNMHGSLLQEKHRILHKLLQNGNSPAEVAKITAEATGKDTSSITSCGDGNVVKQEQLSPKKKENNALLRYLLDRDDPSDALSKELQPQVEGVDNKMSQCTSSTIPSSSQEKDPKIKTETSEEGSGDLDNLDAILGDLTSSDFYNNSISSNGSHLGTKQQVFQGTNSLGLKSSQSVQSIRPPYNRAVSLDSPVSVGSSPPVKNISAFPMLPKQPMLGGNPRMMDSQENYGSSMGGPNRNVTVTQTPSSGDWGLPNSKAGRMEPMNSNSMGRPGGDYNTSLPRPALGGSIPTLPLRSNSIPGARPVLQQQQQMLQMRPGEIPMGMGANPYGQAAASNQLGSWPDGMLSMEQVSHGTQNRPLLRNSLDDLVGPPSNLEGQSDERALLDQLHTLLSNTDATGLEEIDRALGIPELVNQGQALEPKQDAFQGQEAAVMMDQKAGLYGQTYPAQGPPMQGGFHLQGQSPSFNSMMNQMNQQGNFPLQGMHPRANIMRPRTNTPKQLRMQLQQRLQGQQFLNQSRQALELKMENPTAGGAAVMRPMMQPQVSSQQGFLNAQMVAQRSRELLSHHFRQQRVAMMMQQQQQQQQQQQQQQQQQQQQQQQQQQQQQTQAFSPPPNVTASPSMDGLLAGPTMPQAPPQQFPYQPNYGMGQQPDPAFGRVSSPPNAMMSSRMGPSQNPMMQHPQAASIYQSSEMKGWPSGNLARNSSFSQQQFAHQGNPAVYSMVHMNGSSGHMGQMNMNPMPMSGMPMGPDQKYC
The test system of assay [18] is BJ. Description: BJ-TERT-LT-ST fibroblast viability loss – cell-based, RAS-independent, luminescence, dose response (AID 1935).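 Note: BJ fibroblasts immortalized with TERT plus LT and ST oncogenes.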 In kind it is functional. Conditions: Homo sapiens.
Assay [19] can be described thus: DRD fibroblast viability loss – cell-based, non-viral oncogenic, luminescence, dose response (AID 1934). It is filed as functional. The note with it: Homo sapiens.
Another assay concerns Jurkat. Description: blockers of NF-kB activation in T cells – Jurkat, luciferase reporter, luminescence, B- and T-cell, dose response (AID 489004).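 Note: NF-kB luciferase reporter Jurkat cells stimulated with PMA plus ionomycin.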 In kind it is functional, cell-based. The note with it: Homo sapiens.
A short description of assay [20]: loss of viability in HepG2 cells – cell-based, CellTiter-Glo, cherry-picked, cytotoxicity control for Shn3 inhibitor project, dose response (AID 624134). In kind it is functional. For orientation: ATP-based viability assays read luminescence as a measure of living cells.
The target in assay [21] is T4, Oxysterols receptor LXR-beta (Homo sapiens, UniProt P55055).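 Note: Cell-based luminescence dose-response assay of agonist activity at LXR, run as a confirmatory counterscreen to a daf-12 agonist screen; HEK293 cells with Gal4-LXR fusion and GAL4-driven luciferase reporter; agonist potency from rising luciferase signal of a Gal4-LXR reporter.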
T4 sequence (P55055 whole entry): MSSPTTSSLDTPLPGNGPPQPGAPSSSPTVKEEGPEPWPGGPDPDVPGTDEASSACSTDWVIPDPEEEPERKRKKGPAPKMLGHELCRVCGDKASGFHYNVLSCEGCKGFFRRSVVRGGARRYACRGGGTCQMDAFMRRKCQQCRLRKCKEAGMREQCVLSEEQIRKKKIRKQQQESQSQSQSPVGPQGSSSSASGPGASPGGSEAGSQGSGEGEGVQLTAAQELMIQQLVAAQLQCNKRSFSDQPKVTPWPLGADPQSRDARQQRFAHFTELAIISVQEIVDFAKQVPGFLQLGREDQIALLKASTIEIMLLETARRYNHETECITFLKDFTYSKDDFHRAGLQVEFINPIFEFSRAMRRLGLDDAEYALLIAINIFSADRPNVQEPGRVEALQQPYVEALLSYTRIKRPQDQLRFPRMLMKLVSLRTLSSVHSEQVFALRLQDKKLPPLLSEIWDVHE
It is filed as functional, cell-based.

In assay [22] the target is Luciferin 4-monooxygenase (Photinus pyralis, UniProt P08659). Kind of assay: inhibition of purified Photinus pyralis luciferase – biochemical, luminescence, dose response (AID 1891).
In assay [23] the test system is BJ. Description: BJ-TERT fibroblast viability loss – cell-based, RAS-independent, luminescence, dose response (AID 1933). The note with it: Homo sapiens. In kind it is functional.
Assay [24] in a line: general cell-killing toxicity readout – plate reader, dry powder samples, cytotoxicity control for PAX8 inhibitor project, dose response (AID 743021). It is filed as functional, cell-based.
Assay [25] is described as follows: HEK-293T viability loss, compound-treated – cell-based, uHTS hits, cytotoxicity control for B/T-cell NF-kB inhibitor project, dose response (AID 489019).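 Note: IC50 reflects cytotoxicity as loss of cell viability.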 It is filed as functional.
For assay [26], the system named is BJ. Description: cells. It is filed as functional, cell-based. The note with it: Homo sapiens.
Assay [27] can be described thus: cells.
Assay [28] can be described thus: Luminescence Cell-Based Dose Confirmation HTS to Identify Inhibitors of Platelet Dense Granule Release. [Related pubchem assays: 1663 (Primary HTS), 1678 (Summary of Project)]. In kind it is functional.
In the next assay the target is Paired box protein Pax-8 (Homo sapiens, UniProt Q06710). Kind of assay: PAX8 transcriptional activity inhibition in RMG-I – RMG-I cells, luciferase, cherry-pick, dose response (AID 687027).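 Note: luciferase reporter driven by Pax8 target thyroperoxidase promoter measured by SteadyGlo luminescence.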 In kind it is functional, cell-based.
Sequence of Paired box protein Pax-8 (Q06710 whole entry): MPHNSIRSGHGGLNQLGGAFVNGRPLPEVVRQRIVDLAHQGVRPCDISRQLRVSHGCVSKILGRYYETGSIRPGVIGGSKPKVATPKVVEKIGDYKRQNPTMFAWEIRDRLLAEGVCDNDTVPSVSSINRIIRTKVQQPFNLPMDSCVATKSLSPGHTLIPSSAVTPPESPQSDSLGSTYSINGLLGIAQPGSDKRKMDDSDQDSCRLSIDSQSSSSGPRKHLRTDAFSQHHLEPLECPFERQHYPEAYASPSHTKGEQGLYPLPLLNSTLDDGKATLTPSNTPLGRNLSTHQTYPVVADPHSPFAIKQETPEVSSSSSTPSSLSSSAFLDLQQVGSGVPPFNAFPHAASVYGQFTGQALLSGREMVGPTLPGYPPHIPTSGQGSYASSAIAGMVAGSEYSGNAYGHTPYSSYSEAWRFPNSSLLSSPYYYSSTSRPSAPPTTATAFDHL
A short description of assay [29]: reduction of Shn3 3'UTR-driven luciferase in osteoblasts – cell-based, Clone20 osteoblasts, firefly luciferase, cherry-picked, dose response (AID 624132).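 Note: firefly luciferase luminescence from reporter carrying the Shn3 3'UTR in osteoblasts.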 In kind it is functional.

Each structure is given as a SMILES string. Calls of active or inactive are those of the source. A value given as a limit tells only on which side of the number the result lay.

Sequence of Acyl-homoserine lactone acylase PvdQ (Q9I194 24-193 limits assumed): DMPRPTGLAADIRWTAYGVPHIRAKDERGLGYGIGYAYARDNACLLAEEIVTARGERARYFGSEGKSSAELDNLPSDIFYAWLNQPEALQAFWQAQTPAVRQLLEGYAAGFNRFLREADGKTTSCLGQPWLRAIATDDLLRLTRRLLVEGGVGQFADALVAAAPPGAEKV
Sequence of Acyl-homoserine lactone acylase PvdQ (Q9I194 217-762 limits assumed): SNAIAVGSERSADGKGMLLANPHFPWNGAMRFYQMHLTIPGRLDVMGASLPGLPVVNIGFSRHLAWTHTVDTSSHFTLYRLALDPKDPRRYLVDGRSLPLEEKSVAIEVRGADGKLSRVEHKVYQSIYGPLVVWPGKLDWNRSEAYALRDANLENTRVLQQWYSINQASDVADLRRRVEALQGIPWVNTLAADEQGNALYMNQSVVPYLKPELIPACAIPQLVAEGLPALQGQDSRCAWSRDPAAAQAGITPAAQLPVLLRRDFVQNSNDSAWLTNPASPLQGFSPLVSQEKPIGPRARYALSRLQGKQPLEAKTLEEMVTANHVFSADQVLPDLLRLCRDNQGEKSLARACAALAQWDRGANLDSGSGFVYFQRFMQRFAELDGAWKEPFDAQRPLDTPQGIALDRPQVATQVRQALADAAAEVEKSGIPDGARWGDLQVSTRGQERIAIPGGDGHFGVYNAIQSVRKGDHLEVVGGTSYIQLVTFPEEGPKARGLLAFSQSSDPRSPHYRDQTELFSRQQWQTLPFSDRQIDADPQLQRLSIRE
Sequence of Peroxisome proliferator-activated receptor gamma/Nuclear receptor coactivator 1 (P37231 whole entry): as the sequence (P37231 whole entry) above
Sequence of Peroxisome proliferator-activated receptor gamma/Nuclear receptor coactivator 1 (Q15788 whole entry, further chain): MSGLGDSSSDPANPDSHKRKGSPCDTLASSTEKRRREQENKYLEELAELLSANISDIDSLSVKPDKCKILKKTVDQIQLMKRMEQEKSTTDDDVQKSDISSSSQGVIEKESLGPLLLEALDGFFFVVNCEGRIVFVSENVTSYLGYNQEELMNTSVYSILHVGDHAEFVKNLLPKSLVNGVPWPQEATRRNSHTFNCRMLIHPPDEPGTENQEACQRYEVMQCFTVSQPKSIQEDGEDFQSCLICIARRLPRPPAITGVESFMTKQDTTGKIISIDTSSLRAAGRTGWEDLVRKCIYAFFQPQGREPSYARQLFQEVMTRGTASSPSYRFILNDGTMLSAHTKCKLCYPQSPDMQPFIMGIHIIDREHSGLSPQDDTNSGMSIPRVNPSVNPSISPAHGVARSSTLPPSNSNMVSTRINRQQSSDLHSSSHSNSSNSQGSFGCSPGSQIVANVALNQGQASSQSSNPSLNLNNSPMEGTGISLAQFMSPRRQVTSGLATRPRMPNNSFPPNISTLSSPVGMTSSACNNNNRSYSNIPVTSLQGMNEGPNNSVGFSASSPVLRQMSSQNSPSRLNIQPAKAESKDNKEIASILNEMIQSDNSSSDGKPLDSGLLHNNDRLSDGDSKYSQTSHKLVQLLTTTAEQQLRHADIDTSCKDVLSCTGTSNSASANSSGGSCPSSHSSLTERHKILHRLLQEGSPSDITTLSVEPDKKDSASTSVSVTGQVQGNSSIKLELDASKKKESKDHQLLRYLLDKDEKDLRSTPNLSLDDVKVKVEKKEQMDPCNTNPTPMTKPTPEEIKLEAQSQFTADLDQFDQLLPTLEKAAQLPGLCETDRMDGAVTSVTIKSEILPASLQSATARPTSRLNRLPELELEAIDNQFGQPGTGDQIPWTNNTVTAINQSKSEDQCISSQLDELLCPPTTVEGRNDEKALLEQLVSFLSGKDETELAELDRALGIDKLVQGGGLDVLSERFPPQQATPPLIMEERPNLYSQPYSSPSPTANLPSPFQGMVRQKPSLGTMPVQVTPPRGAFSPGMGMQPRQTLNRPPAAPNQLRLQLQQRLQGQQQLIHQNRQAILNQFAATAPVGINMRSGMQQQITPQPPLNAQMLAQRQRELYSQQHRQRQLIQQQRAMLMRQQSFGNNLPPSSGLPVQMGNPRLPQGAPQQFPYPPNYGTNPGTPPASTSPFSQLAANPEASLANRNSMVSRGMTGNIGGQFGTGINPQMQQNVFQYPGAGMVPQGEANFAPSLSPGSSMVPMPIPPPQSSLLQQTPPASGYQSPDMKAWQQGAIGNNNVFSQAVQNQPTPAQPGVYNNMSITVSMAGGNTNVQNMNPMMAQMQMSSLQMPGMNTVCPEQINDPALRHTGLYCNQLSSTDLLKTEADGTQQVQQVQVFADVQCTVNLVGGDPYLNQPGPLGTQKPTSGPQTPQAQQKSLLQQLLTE

The term AC50 denotes the midpoint of the concentration-response curve, whichever way the signal moves. Turning to `O=C1C2C(C(=O)N1Cc1ccco1)C1C=CC2C12CC2` (stereo not given), the AC50 in assay [1] is 2.42 µM (active).

What is called EC50 is the midpoint of the concentration-response curve. The IC50 is the concentration that gives 50% inhibition. As to `CC(C)Cc1c(O)nc(SCC(=O)Nc2ccc3c(c2)CCC3)nc1O`, in assay [2], the EC50 is > 50 µM (active). For the same compound, the IC50 in [3] was > 100 µM (active).

With `Cc1nn(-c2ccccc2Cl)c(Cl)c1/C=N/Nc1nc2ccccc2s1`, the EC50 in assay [4] was 0.086 µM (active); in the assay “cells [5]”, 0.036 µM (active); in assay [6], < 0.1 µM (active); in [7], < 0.1 µM (active); in [8], 0.1 µM (active); in [9], < 0.16 µM (active). The EC50 in [11] is < 0.1 µM (active). Besides, the IC50 in assay [10] was > 80 µM (inactive).

Turning to `COc1ccc(C2C(C#N)=C(N)Oc3[nH]nc(C)c32)cc1CSc1ccccn1` (stereo not given), the EC50 in [2] is > 50 µM (active); at Protein RecA, 6.32 µM (active). Also, the AC50 in [12] is 9.71 µM (active).

With `O=[N+]([O-])c1ccc(N2CCCCC2)cc1`, the AC50 in assay [1] was 6.52 µM (active).

For `CCc1cc2cc3c(cc2nc1SCC(=O)Nc1cc(C)on1)OCO3`, the IC50 in assay [13] is 1.54 µM (active); in assay [15] it was > 39.8 µM (not active). In addition, the concentration giving a half-maximal response (EC50) in [14], in assay [16] and in assay [17] was > 79.4 µM (not active) throughout.

`O=C(Nc1ccc([N+](=O)[O-])cc1)C(=O)Nc1cccc(C(=O)O)c1`: the EC50 was > 75 µM (inconclusive) with BJ [18]; 8.07 µM (active) in assay [19]; > 67.5 µM (inactive) in assay [21]; 0.984 µM (active) in assay [22]; 0.126 µM (active) in assay [4]; 16.2 µM (active) in the assay on BJ [23]. For the same compound, the EC50 was > 12 µM (inconclusive) in the assay “cells [5]”; < 0.1 µM (active) in assay [6]; < 0.1 µM (active) in [7]; 0.115 µM (active) in [8]; 7.23 µM (active) in the assay on BJ [26]; < 0.1 µM (active) in [11]. Besides, the EC50 was > 67.5 µM (inactive) in “cells [27]” and 2.09 µM (active) in assay [28]. Also, the IC50 in the assay on Jurkat was 1.57 µM (active); in assay [25] it was > 80 µM (inactive). Besides, the AC50 in assay [20] was 56.2 µM (active); in assay [24] it was 5.98 µM (active); at Paired box protein Pax-8, 5 µM (active); in [29] it was 4.21 µM (active).

Values taken from ChEMBL document CHEMBL1201862, “PubChem BioAssay data set” (2004).
